Values after ≈ are worked out from the molar mass of the structure shown.
Columns and labels:
[1] = tested on: SH anti-targets in HeLa cells; assay: Gel-based competitive ABPP in situ, cultured HeLa cells, anti-targets; type: cell-based, human; conditions: 2 h, any compound concentration, ABHD6 not visible
Description: Assay Overview: The purpose of this assay was to determine IC50 values of powder samples of test compounds for enzyme of interest activity in situ using a gel-based competitive ABPP assay. In this assay, cultured cells were treated with test compound, harvested, and lysed. The isolated soluble proteome fraction was reacted with FP-Rh and analyzed by SDS-PAGE as described above.
Protocol Summary: To cultured HeLa cells (90% confluent) was added fresh DMEM (5 mL total volume; supplemented with 10% FCS) pre-mixed with DMSO or test compound. After 2 hours at 37° C., cells were harvested by scraping, washed twice with 10 mL DPBS, and homogenized by sonication in DPBS. The soluble fraction was isolated by centrifugation (100K×g, 45 minutes) and the protein concentration was adjusted to 1 mg/mL with DPBS. FP-Rh (1 μL of 50× stock in DMSO) was added to a final concentration of 2 μM in 50 μL total reaction volume. […] The percentage activity remaining was determined by measuring the integrated optical density of the enzymes of interest, and anti-target bands relative to a DMSO-only (no compound) control. […]
Compound 1 is active in situ against the LYPLA enzymes (see FIG. 3A) as assessed by gel-based competitive ABPP with FP-Rh following two hours of compound treatment of HeLa cells cultured in serum-supplemented medium.

[2] = Solubility in PBS; type: physicochemical; conditions: phosphate buffered saline, aqueous buffer, kinetic from dmso stock, PBS pH 7.4, 1% DMSO, 22° C.
Description: The solubility of compounds were tested in triplicate in phosphate buffered saline (PBS), pH 7.4. Per well, 198 μL PBS is added to a Millipore Solvinert Hydrophilic PTFE 96 well filter plate: pore size: 0.45 μm (MSRLN0450). Test compounds were introduced from 10 mM DMSO stock solutions (2 μL). The final concentration of DMSO was 1 percent. Samples were allowed to incubate at 22° C. for 18 hours. In the morning the plate was centrifuged where the soluble portion passes through the filter and was collected in a capture plate. Clotrimazole was included as a control to assure the assay was working properly. The samples were analyzed by HPLC. Peak area was compared to a standard of known concentration.

[3] = Stability in PBS; type: physicochemical; conditions: 10 μM compound, ambient temperature
Description: Samples were held in the HPLC autosampler at ambient temperature. At approximately 0, 1, 2, 4, 8, 24, and 48 hours the samples were injected on the HPLC. Peak area and retention time were compared between injections. Data was log transformed and represented as half-life. DMSO was added as a co-solvent as needed for solubility.

[4] = tested on: HeLa cells; assay: Analysis of cytotoxicity (WST-1); type: cell-based, human
Description: Assay Overview: The purpose of this assay was to determine cytotoxicity of powder samples of test compounds. In this assay, HeLa cells in either serum-free medium or medium containing fetal calf serum (FCS) were incubated with test compounds, followed by determination of cell viability. The assay utilized the WST-1 substrate, which was converted into colorimetric formazan dye by the metabolic activity of viable cells. The amount of formed formazan directly correlated to the number of metabolically active cells in the culture.
Protocol Summary: This assay was started by seeding HeLa cells in DMEM medium supplemented with 10% FCS and 1× Pen-Strep-Glutamine in a 96-well plate. Cells were incubated at 37° C. in a humidified incubator until 80% confluent (24 hours). Medium was removed, and 100 μL of fresh medium (serum-free or supplemented with 10% FCS), pre-mixed with DMSO or test compound, was added to each well. Cells were incubated for 48 hours at 37° C. in a humidified incubator and cell viability was determined by the WST-1 assay (Roche) according to manufacturer instructions. CC50 values were determined from dose-response curves from three replicates at each inhibitor concentration (10, 100, 1000, 10000, 100000 nM), compared to six replicates of cells treated with DMSO only.

In the case of `O=C(ON1C(=O)C2CN(C(=O)N3CCOCC3)CCN2C1=O)N1CCC(CCc2ccc(Cl)cc2)CC1` (centres unmarked) [Compound 1, 7-(morpholine-4-carbonyl)-1,3-dioxohexahydroimidazo[1,5-a]pyrazin-2(3H)-yl 4-(4-chloro-phenethyl)piperidine-1-carboxylate], the “anti-target inhibition in situ” value [1] is reported as “No anti-target inhibition”, the solubility at 18 h [2] is reported as 18 µM (≈ 9.61 µg/mL) and the half-life at 10 µM [3] is reported as 19 h. For the same compound, the cytotoxicity ([4]; HeLa, 48 h, serum-free and serum-supplemented medium, up to 100 μM) was “did not show evidence of cytotoxicity” and the “dosing window (CC50 limit 10 μM versus in situ IC50)” value ([4]; based on in situ IC50 values of 87/143 nM) was about 70 fold.

Reference: US9981972B2, “N-hydroxy bicyclic hydantoin carbamates as tools for identification of serine hydrolase targets” (ABIDE THERAPEUTICS, INC., priority 2014, dated 2018)
